Results on 7 compounds are retold here after paper PMC10533049, “Anti-Inflammatory Halogenated Monoterpenes from the Red Alga Portieria hornemannii” (Marine Drugs, 2023).

Series [1] can be described thus: Viability of dendritic cells (CCK-8 assay). The format is cell-based. The note with it: for viability at 100 μg/mL: DCs, CCK-8, mean ± S.D., triplicate, read-out: Cell Viability (%) (DCs). The method, then:
(§1) In this study, the viability of D.C. cells was evaluated at a concentration of 100 μg/mL using a cell-counting-kit assay (CCK-8) obtained from Dojindo Molecular Technologies, Inc. (Kumamoto, Japan), which measured absorbance at a wavelength of 450 nm, following the methodology outlined by Chung et al.. The expression of the pro-inflammatory cytokine, TNF-α, in the culture supernatant was screened using the dendritic cells ELISA kit, as described in a previous study.

Another series deals with TNF-α. Description: TNF-α expression in LPS-stimulated dendritic cells (ELISA). The note with it: for IC50: Dendritic cell; for Anti-inflammatory activity (result in words): LPS-stimulated dendritic cells, pro-inflammatory cytokine / TNF-α production. The format is cell-based. The method, then: as §1
In general terms: ELISA stands for enzyme-linked immunosorbent assay.

Series [2] has as its system cell lines derived from the brain, kidney, and colon. On the set-up: method as in PMID 1501227, PMID 9443608. The note with it: cited from earlier work.
Setting [3] is: read-out: Anti-Inflammatory Activity (IC50) TNF-α Expression (LPS/DCs).

Structures are written as SMILES. Where two headings read alike, the source gives them in different places.

Turning to `C=C[C@](C)(Cl)[C@H](Cl)/C=C/C(=C/Cl)C(Br)Br` [Compound 3, (3S,4R,5E,7Z)-3,4,8-trichloro-7-dibromomethyl-3-methyl-octa-1,5,7-triene], the viability at 100 μg/mL in series [1] stood at 80.2 ± 8.3%. Besides, in the series on TNF-α (setting [3]), the IC50 is over 100 µM. Also, the “Anti-inflammatory activity (result in words)” value (“Anti-inflammatory activity” for short) in the series on TNF-α was “did not show any activity”.
For the compound `C=C[C@@](C)(Cl)[C@@H](Cl)/C=C/C(=C/Cl)C(Cl)Cl` [Compound 4], the viability at 100 μg/mL in series [1] amounted to 51.1 ± 2.2%. Further, the IC50 with TNF-α (setting [3]) turned out to be 6.2 ± 1.1 µM. In addition, in the series on TNF-α, the “Anti-inflammatory activity” value is recorded as “significantly reduce the TNF-α”.
On to `C=C[C@@](C)(Cl)[C@@H](Br)/C=C/[C@](C)(Cl)C(Cl)Cl` [Compound 1, (3R,4S,5E,7S)-4-Bromo-3,7,8,8-tetrachloro-3,7-dimethyl-octa-1,5-diene], for which the viability at 100 μg/mL in series [1] amounted to 47 ± 2.1%. Moreover, the IC50 in the series with TNF-α (setting [3]) amounted to 2.5 ± 0.4 µM. In addition, in the series on TNF-α, the “Anti-inflammatory activity” value is reported as “significantly reduce the TNF-α”.
For the compound `C=C(Cl)[C@](Cl)(CBr)CC[C@@H](Br)C(C)(C)Cl` [halomon], in series [2], the “Cytotoxicity in NCI human tumor cell line screen (result in words)” value is given as “significant differential cytotoxicity”.
As to `C=C[C@@](C)(Cl)[C@H](Cl)/C=C/C(=C/Cl)C(Cl)Cl` [Compound 5], the viability at 100 μg/mL in series [1] is 49.1 ± 2.7%. The IC50 in the series on TNF-α (setting [3]) came to 10.6 ± 1.3 µM. The “Anti-inflammatory activity” value with TNF-α is reported as “significantly reduce the TNF-α”.
Turning to `O=c1c(O)c(-c2ccc(O)c(O)c2)oc2cc(O)cc(O)c12` [quercetin, reference compound], the IC50 in series [1] (dendritic cells (DCs), positive control, read-out: Cytotoxicity against DCs, IC50) is 78.8 ± 7.3 µM; in the series on TNF-α (LPS-stimulated DCs, unit inferred, read-out: IC50, reduction of TNF-α production in LPS-stimulated dendritic cells), 23.1 ± 5.2 µM.
In the case of `C=C[C@@](C)(Cl)[C@@H](Cl)/C=C/C(C)(Cl)C(Cl)Cl` (relative stereo) [Compound 2, (3R*,4S*,5E)-3,4,7,8,8-Pentachloro-3,7-dimethyl-octa-1,5-diene], the viability at 100 μg/mL in series [1] amounted to 88.8 ± 8.1%. Further, the IC50 with TNF-α (setting [3]) was over 100 µM.

One may read the viability as a per cent measure of how many cells are alive, often set against a control.
